Values after ≈ are worked out from the molar mass of the structure shown.
Key:
[1] = target: T1, Dihydroorotate dehydrogenase (quinone), mitochondrial (Homo sapiens, UniProt Q02127); assay: Inhibition of human DHODH incubated for 30 mins
[2] = target: T1, Dihydroorotate dehydrogenase (quinone), mitochondrial; assay: Inhibition of human DHODH at 100 nM for 30 mins relative to control
[3] = target: T1, Dihydroorotate dehydrogenase (quinone), mitochondrial; assay: Inhibition of human DHODH at 1 uM for 30 mins relative to control
[4] = system: HCT-116; assay: Antiproliferative activity against human HCT-116 cells incubated for 96 hrs by MTT assay; format: functional, cell-based; details: HCT-116, 96 h
[5] = Toxicity in BALB/c mouse assessed as induction of liver inflammation administered at 300 mg/kg, po for 14 days; format: organism-based; details: in vivo, 336 h, time 14 day
[6] = Toxicity in BALB/c mouse assessed as change in blood MPV administered at 300 mg/kg, po for 14 days; format: organism-based; details: in vivo, 336 h, time 14 day
[7] = system: Raji; assay: Antiproliferative activity against human Raji cells incubated for 96 hrs by MTT assay; format: functional, cell-based
[8] = Cytotoxicity against human NCM460 cells incubated for 96 hrs by MTT assay; format: toxicity, cell-based
[9] = target: Voltage-gated inwardly rectifying potassium channel KCNH2 (Homo sapiens, UniProt Q12809); assay: Inhibition of human ERG; format: toxicity
[10] = Lipophilicity, logP of compound; format: physicochemical; details: octanol/water
[11] = Toxicity in BALB/c mouse assessed as change in blood RDW administered at 300 mg/kg, po for 14 days; format: organism-based; details: in vivo, 336 h, time 14 day
[12] = Toxicity in BALB/c mouse assessed as change in blood MCV administered at 300 mg/kg, po for 14 days; format: organism-based; details: in vivo, 336 h, time 14 day
[13] = system: SUD4; assay: Antiproliferative activity against human SU-DHL-4 cells incubated for 96 hrs by MTT assay; format: functional, cell-based; details: SU-DHL-4, 96 h
[14] = Toxicity in BALB/c mouse assessed as change in blood PLT administered at 300 mg/kg, po for 14 days; format: organism-based; details: in vivo, 336 h, time 14 day
[15] = Toxicity in BALB/c mouse assessed as increase in albumin to globulin ratio administered at 300 mg/kg, po for 14 days; format: organism-based; details: in vivo, 336 h, time 14 day
[16] = Cytotoxicity against human HCoEpiC cells incubated for 96 hrs by MTT assay; format: toxicity, cell-based
[17] = system: Kasumi 1; assay: Antiproliferative activity against human Kasumi 1 cells incubated for 96 hrs by MTT assay; format: functional, cell-based; details: Kasumi 1, 96 h
[18] = Toxicity in BALB/c mouse assessed as change in blood MCH administered at 300 mg/kg, po for 14 days; format: organism-based; details: in vivo, 336 h, time 14 day
[19] = Toxicity in BALB/c mouse assessed as histopathological changes in kidney administered at 300 mg/kg, po for 14 days; format: organism-based; details: in vivo, 336 h, time 14 day
[20] = Aqueous solubility of compound; format: physicochemical; details: buffer
[21] = system: U-937; assay: Antiproliferative activity against human U-937 cells incubated for 96 hrs by MTT assay; format: functional, cell-based; details: U-937, 96 h
[22] = Toxicity in BALB/c mouse assessed as change in blood neutrophil administered at 300 mg/kg, po for 14 days; format: organism-based; details: in vivo, 336 h, time 14 day
[23] = system: KG-1; assay: Antiproliferative activity against human KG-1 cells incubated for 96 hrs by MTT assay; format: functional, cell-based; details: KG-1, 96 h
[24] = Cytotoxicity against human HL7702 cells incubated for 96 hrs by MTT assay; format: toxicity, cell-based, L02
[25] = Toxicity in BALB/c mouse assessed as histopathological changes in liver administered at 300 mg/kg, po for 14 days; format: organism-based; details: in vivo, 336 h, time 14 day
[26] = Toxicity in BALB/c mouse assessed as change in blood WBC administered at 300 mg/kg, po for 14 days; format: organism-based; details: in vivo, 336 h, time 14 day
[27] = Selectivity index ratio of IC50 for human HL7702 cells to IC50 for human Raji cells; format: toxicity; details: HL7702 cells and Raji cells, read-out: Ratio IC50
[28] = Toxicity in BALB/c mouse assessed as change in blood RBC administered at 300 mg/kg, po for 14 days; format: organism-based; details: in vivo, 336 h, time 14 day
[29] = Toxicity in BALB/c mouse assessed as change in blood HGB administered at 300 mg/kg, po for 14 days; format: organism-based; details: in vivo, 336 h, time 14 day
[30] = Toxicity in BALB/c mouse assessed as change in blood HCT administered at 300 mg/kg, po for 14 days; format: organism-based; details: in vivo, 336 h, time 14 day
[31] = system: A-375; assay: Antiproliferative activity against human A-375 cells incubated for 96 hrs by MTT assay; format: functional, cell-based; details: A-375, 96 h
[32] = Toxicity in BALB/c mouse assessed as change in blood lymphocytes administered at 300 mg/kg, po for 14 days; format: organism-based, Lymphocyte; details: in vivo, 336 h, time 14 day
[33] = Toxicity in BALB/c mouse assessed as change in blood MCHC administered at 300 mg/kg, po for 14 days; format: organism-based; details: in vivo, 336 h, time 14 day
[34] = Toxicity in BALB/c mouse assessed as histopathological changes in lung administered at 300 mg/kg, po for 14 days; format: organism-based; details: in vivo, 336 h, time 14 day
[35] = Toxicity in BALB/c mouse assessed as histopathological changes in spleen administered at 300 mg/kg, po for 14 days; format: organism-based; details: in vivo, 336 h, time 14 day
[36] = target: T1, Dihydroorotate dehydrogenase (quinone), mitochondrial; assay: Potency index, ratio of teriflunomide IC50 to test compound IC50 for human DHODH

T1 sequence (Q02127 whole entry): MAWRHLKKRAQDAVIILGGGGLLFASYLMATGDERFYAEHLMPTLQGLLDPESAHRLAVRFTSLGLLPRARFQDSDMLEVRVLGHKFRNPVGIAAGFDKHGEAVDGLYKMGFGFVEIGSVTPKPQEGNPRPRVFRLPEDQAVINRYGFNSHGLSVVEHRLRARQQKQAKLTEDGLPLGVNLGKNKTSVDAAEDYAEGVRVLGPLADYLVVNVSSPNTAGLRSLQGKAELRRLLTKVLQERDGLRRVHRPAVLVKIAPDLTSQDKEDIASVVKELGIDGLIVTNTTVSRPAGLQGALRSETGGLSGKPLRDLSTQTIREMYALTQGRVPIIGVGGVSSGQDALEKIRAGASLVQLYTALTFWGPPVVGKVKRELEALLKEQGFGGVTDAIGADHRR
Chain of Voltage-gated inwardly rectifying potassium channel KCNH2 (Q12809 whole entry): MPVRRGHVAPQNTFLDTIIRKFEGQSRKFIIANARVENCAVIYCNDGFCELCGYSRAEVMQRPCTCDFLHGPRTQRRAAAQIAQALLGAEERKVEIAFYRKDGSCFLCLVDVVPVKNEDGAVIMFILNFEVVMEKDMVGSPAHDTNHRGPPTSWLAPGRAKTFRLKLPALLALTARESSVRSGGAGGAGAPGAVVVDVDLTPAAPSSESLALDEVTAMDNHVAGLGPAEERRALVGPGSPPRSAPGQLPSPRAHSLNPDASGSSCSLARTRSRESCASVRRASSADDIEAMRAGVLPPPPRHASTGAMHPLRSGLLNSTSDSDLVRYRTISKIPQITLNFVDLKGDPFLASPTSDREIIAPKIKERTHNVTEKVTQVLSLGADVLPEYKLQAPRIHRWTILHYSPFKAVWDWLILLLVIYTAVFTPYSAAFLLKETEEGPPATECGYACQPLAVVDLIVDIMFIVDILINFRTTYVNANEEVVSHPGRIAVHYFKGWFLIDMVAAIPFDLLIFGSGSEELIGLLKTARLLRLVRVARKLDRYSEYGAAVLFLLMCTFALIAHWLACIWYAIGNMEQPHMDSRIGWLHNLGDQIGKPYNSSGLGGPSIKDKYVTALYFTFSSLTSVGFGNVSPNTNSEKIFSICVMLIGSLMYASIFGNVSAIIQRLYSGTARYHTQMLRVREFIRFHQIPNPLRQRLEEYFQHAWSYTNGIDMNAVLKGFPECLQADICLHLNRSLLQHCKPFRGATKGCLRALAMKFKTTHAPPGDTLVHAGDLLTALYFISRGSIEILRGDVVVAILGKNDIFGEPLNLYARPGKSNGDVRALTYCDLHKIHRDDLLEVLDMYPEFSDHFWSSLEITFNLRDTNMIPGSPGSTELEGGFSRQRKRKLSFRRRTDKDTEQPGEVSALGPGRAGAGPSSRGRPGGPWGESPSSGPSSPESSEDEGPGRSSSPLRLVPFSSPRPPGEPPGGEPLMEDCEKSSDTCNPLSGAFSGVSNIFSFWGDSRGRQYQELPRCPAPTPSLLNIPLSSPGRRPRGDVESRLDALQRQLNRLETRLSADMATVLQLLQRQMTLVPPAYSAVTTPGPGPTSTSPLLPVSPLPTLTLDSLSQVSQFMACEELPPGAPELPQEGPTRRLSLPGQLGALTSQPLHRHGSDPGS

In the case of `C/C(O)=C(\C#N)C(=O)Nc1cc(O[C@@H](C)C(F)(F)F)c(C(=O)c2ccc(Cl)cc2)cc1F`, the IC50 [1] is reported as 70.5 nM, the inhibition [2] is reported as 56.8% and the inhibition [3] is reported as 91.3%.
`C/C(O)=C(\C#N)C(=O)Nc1ccc(C(=O)c2ccccc2)c(F)c1` gave an inhibition [2] of 31.7% and an inhibition [3] of 74.1%.
`C/C(O)=C(\C#N)C(=O)Nc1cc(O[C@@H](C)C(F)(F)F)c(C(=O)c2cccc(Cl)c2)cc1F` gave an IC50 [1] of 54.8 nM, an inhibition [2] of 61.8% and an inhibition [3] of 93.7%.
With `C/C(O)=C(\C#N)C(=O)Nc1cc(O[C@@H](C)C(F)(F)F)c(C(=O)c2ccccc2F)cc1F` the IC50 [4] was 640 nM, the Activity [5] was “Toxic” and the Activity [6] was “Non-Toxic”. For the same compound, the IC50 [7] was 100 nM, the IC50 at 96 h [8] was > 10 µM and the IC50 [1] was 23.9 nM. The IC50 [9] was > 100 µM, the logP [10] was 2.16 and the Activity [11] was “Non-Toxic”. The Activity [12] was “Non-Toxic”, the IC50 [13] was 1650 nM and the Activity [14] was “Non-Toxic”. The Activity [15] was “Toxic”, the IC50 at 96 h [16] was 60.5 µM and the inhibition [2] was 79.1%. For the same compound, the IC50 [17] was 410 nM, the Activity [18] was “Non-Toxic” and the Activity [19] was “Non-Toxic”. For the same compound, the solubility [20] was 109 µg/mL (≈ 241 µM), the IC50 [21] was 520 nM and the Activity [22] was “Non-Toxic”. The IC50 [23] was 530 nM, the IC50 at 96 h [24] was 2100 nM and the Activity [25] was “Toxic”. For the same compound, the Activity [26] was “Non-Toxic”, the selectivity ratio [27] was 21 and the Activity [28] was “Non-Toxic”. For the same compound, the Activity [29] was “Non-Toxic”, the Activity [30] was “Non-Toxic” and the IC50 [31] was 950 nM. The Activity [32] was “Non-Toxic”, the inhibition [3] was 96.9% and the Activity [33] was “Non-Toxic”. For the same compound, the Activity [34] was “Non-Toxic” and the Activity [35] was “Non-Toxic”.
For `O=C(c1ccccc1)c1ccc(Nc2ncccc2C(=O)O)c(F)c1`, the IC50 [1] was 66.1 nM, the inhibition [2] was 57.7% and the inhibition [3] was 86.3%.
Work on `C/C(O)=C(\C#N)C(=O)Nc1cc(F)c(C(=O)c2ccccc2)cc1F` yielded an inhibition [2] of 43.8% and an inhibition [3] of 76.3%.
`COc1ccc(C(=O)c2cc(F)c(NC(=O)/C(C#N)=C(/C)O)cc2O[C@@H](C)C(F)(F)F)cc1` gave an inhibition [2] of 52.1% and an inhibition [3] of 90%.
Compound `C/C(O)=C(\C#N)C(=O)Nc1ccc(C(=O)c2ccccc2)cc1F` has an inhibition [2] of 32.1% and an inhibition [3] of 70.7%.
With `O=C(c1ccccc1)c1cc(F)c(Nc2ncccc2C(=O)O)c(F)c1` the IC50 [1] was 35.1 nM, the inhibition [2] was 67.2% and the inhibition [3] was 90.4%.
`CCC(C)Oc1cc(NC(=O)/C(C#N)=C(/C)O)c(F)cc1C(=O)c1ccccc1` (stereo unspecified) gave an IC50 [1] of 35.6 nM, an inhibition [2] of 65.4% and an inhibition [3] of 90.1%.
Compound `CCOc1cc(NC(=O)/C(C#N)=C(/C)O)c(F)cc1C(=O)c1ccccc1` has an inhibition [2] of 49.8% and an inhibition [3] of 83.1%.
In the case of `O=C(c1ccccc1)c1ccc(Nc2ncccc2C(=O)O)c(Cl)c1`, the IC50 [1] is reported as 63.5 nM, the inhibition [2] is reported as 62.4% and the inhibition [3] is reported as 88.1%.
Compound `COc1cc(NC(=O)/C(C#N)=C(/C)O)c(F)cc1C(=O)c1ccccc1` has an inhibition [2] of 48.5% and an inhibition [3] of 82.4%.
`C/C(O)=C(\C#N)C(=O)Nc1ccc(C(=O)c2ccccc2)cc1` showed an inhibition [2] of 30.8% and an inhibition [3] of 57.3%.
With `C/C(O)=C(\C#N)C(=O)Nc1cc(O[C@@H](C)C(F)(F)F)c(C(=O)c2ccccc2)cc1F` the Ratio IC50 [36] was 14, the IC50 [1] was 29 nM and the inhibition [2] was 71.5%. The inhibition [3] was 95.3%.
Work on `C/C(O)=C(\C#N)C(=O)Nc1ccc(C(F)(F)F)cc1` yielded an inhibition [2] of 21.5%.
Work on `C/C(O)=C(\C#N)C(=O)Nc1cc(O[C@@H](C)C(F)(F)F)c(C(=O)c2cccc(F)c2)cc1F` yielded an IC50 [1] of 63.5 nM, an inhibition [2] of 59.3% and an inhibition [3] of 92.1%.
Compound `O=C(c1ccccc1)c1ccc(Nc2ncccc2C(=O)O)cc1` has an IC50 [1] of 178 nM, an inhibition [2] of 38.3% and an inhibition [3] of 80.4%.
`C/C(O)=C(\C#N)C(=O)Nc1cc(O[C@@H](C)C(F)(F)F)c(C(=O)c2ccc3ccccc3c2)cc1F` gave an inhibition [2] of 53.4% and an inhibition [3] of 90.2%.
Compound `COc1cccc(C(=O)c2cc(F)c(NC(=O)/C(C#N)=C(/C)O)cc2O[C@@H](C)C(F)(F)F)c1` has an IC50 [1] of 69.1 nM, an inhibition [2] of 57.2% and an inhibition [3] of 92.2%.
Work on `C/C(O)=C(\C#N)C(=O)Nc1cc(OC(C)C)c(C(=O)c2ccccc2)cc1F` yielded an IC50 [1] of 37.1 nM, an inhibition [2] of 66.1% and an inhibition [3] of 89.9%.
`C/C(O)=C(\C#N)C(=O)Nc1cc(O[C@@H](C)C(F)(F)F)c(C(=O)c2ccc(F)cc2)cc1F` showed an IC50 [1] of 71.8 nM, an inhibition [2] of 56.4% and an inhibition [3] of 91.6%.
Work on `C/C(O)=C(\C#N)C(=O)Nc1cc(O[C@@H](C)C(F)(F)F)c(C#N)cc1F` yielded an inhibition [2] of 31.8% and an inhibition [3] of 76.3%.

From ChEMBL document CHEMBL5352423, “Discovery of potent human dihydroorotate dehydrogenase inhibitors based on a benzophenone scaffold” (Eur J Med Chem, 2022)
